One series deals with caspases. As to conditions: cell cultures containing 23% apoptotic cells; cited from earlier work.
The target of another series is T1, caspase-3 (Homo sapiens, UniProt P42574).
T1 construct: In DLD1 colon carcinoma cells in vitro; endogenous in cells; host or cells: DLD1 colon carcinoma cells
T1 sequence (P42574 29-175 limits assumed): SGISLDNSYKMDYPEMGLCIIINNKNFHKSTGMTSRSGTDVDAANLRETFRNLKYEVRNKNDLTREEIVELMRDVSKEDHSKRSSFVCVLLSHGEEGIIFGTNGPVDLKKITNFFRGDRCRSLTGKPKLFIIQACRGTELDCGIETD
T1 sequence (P42574 176-277 limits assumed): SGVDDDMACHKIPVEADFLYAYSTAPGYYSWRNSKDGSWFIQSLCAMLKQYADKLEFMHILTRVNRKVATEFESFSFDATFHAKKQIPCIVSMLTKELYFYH
Nature of the series: AMC-M808 cleavage in DLD1 colon carcinoma cells after TRAIL treatment, time-lapse confocal fluorescence. Type of series: cell-based. Here is the method:
FIG. 1 is an image of AMC fluorescence from an imaging agent in DLD1 colon carcinoma cells before (A) and after 2 hour treatment with TNF-related apoptosis-inducing ligand (TRAIL) (B).
DLD1 cells were seeded in an 8-chamber glass slide at a density of 2×10^4 cells/cm^2 in DMEM containing 10% FBS and allowed to attach overnight. Fluorescent images of the plated cells were acquired using an Olympus FV1000 confocal microscope equipped with an onstage incubation chamber. TRAIL was added to the cells in a 0.5 mL volume of fresh medium at a concentration of 50 ng/mL. Time-lapse microscopy was then immediately initiated with confocal images acquired at a rate of one image every 10 minutes. The cells were maintained at 37° C. in 5% CO2 for the duration of the experiment. An excitation wavelength of 405 nm and an emission wavelength range of 425 to 475 nm were used to detect the cleaved product of AMC-M808. Fluorescence intensity over time was measured in a representative region-of-interest in each 10-minute image acquired to determine the rate of caspase activity.

“radioiodinated Z-Val-Ala-DL-Asp(O-methyl)-fluoromethyl ketone [[^131I]IZ-VAD-fmk]”: the “uptake in cell cultures” value in the series with caspases is given as “some increase in uptake”.
Regarding `COc1ccccc1CC(=O)NC(C(=O)NC(CC(=O)OCc1ccccc1)C(=O)Nc1ccc2c(C)cc(=O)oc2c1)C(C)C` (stereo not shown) [Compound 3], the “cleavage by caspase-3 after induction of apoptosis” value at caspase-3 (DLD1 cells treated with TRAIL) was “cleaved by caspase-3”. In addition, the “rate of increase in fluorescence intensity due to AMC-M808 cleavage” value at caspase-3 (DLD1 cells, after TRAIL 50 ng/mL, first hour, region of interest in 10 minute frames) was found to be 5.5 min⁻¹. Also, the cell permeability entry on caspase-3 (DLD1 colon carcinoma cells in vitro) is “cell permeable”.
